Test results published in patent publication US20100081642A1, “CB-1 RECEPTOR MODULATOR PHARMACEUTICAL FORMULATIONS” (priority 2008, published 2010).
Converted amounts (≈) assume the structure as drawn. Where two headings read alike, the source gives them in different places.

Assay: Solubility of Compound I in various vehicles (high throughput screening, HPLC assay of solution phase)
Assay type: physicochemical
Procedure: Solubility of Compound 1 was determined using a high throughput screening method.
The above solubilities were determined by adding Compound I to the test system and stirred. Following an equilibrium time, the material in the solution phase is assayed by HPLC to determine solubility.

- solubility (aqueous with cosolvent or surfactant or cyclodextrin, thermodynamic from solid, vehicle CREMOPHOR EL (aqueous solution), free base, read-out: Solubility in vehicle at ambient temperature): < 40 µg/mL
- solubility (aqueous with cosolvent or surfactant or cyclodextrin, thermodynamic from solid, vehicle Methyl Cellulose (aqueous solution), free base, read-out: Solubility in vehicle at ambient temperature): < 40 µg/mL
- solubility (aqueous with cosolvent or surfactant or cyclodextrin, thermodynamic from solid, vehicle Methyl Cellulose with SDS (aqueous solution), free base, read-out: Solubility in vehicle at ambient temperature): < 40 µg/mL
- solubility (aqueous with cosolvent or surfactant or cyclodextrin, thermodynamic from solid, vehicle POLYSORBATE 80 (aqueous solution), free base, read-out: Solubility in vehicle at ambient temperature): < 40 µg/mL
- solubility (aqueous with cosolvent or surfactant or cyclodextrin, thermodynamic from solid, vehicle Sodium lauryl sulfate (aqueous solution), free base, read-out: Solubility in vehicle at ambient temperature): < 40 µg/mL
- solubility (aqueous with cosolvent or surfactant or cyclodextrin, thermodynamic from solid, vehicle Vitamin E TPGS (aqueous solution), free base, read-out: Solubility in vehicle at ambient temperature): < 40 µg/mL
- solubility (fassgf or other biorelevant, thermodynamic from solid, vehicle Simulated gastric fluids (fasted and fed), free base, read-out: Solubility in vehicle at ambient temperature): < 40 µg/mL
- Solubility in vehicle at ambient temperature (vehicle 0.01N HCl/34 mMNaCl, free base): 0.007 mg/g
- Solubility in vehicle at ambient temperature (vehicle IMWITOR 742, free base): 318 mg/g
- Solubility in vehicle at ambient temperature (vehicle IMWITOR:TWEEN (1:1), free base): >240 mg/g
- Solubility in vehicle at ambient temperature (vehicle MIGLYOL 812, free base): 86 mg/g
- Solubility in vehicle at ambient temperature (vehicle Water, free base): 0.001 mg/g
- solubility (water, statement in description, read-out: solubility in water): 1 µg/mL (≈ 1.87 µM)
SMILES: CC(C)(F)[C@H](c1cc(F)cc(C#N)c1)C1CN([C@@H](c2ccc(Cl)cc2)c2cccc(-c3n[nH]c(=O)o3)c2)C1 [Compound I, 3-[(1S)-1-(1-{(S)-(4-chlorophenyl)[3-(5-oxo-4,5-dihydro-1,3,4-oxadiazol-2-yl)phenyl]methyl}azetidin-3-yl)-2-fluoro-2-methylpropyl]-5-fluorobenzonitrile]
